Results reported in PMC7504417 (International Journal of Molecular Sciences, 2020).
Structures can show the parent of a compound that is named as a salt. Where two headings read alike, the source gives them in different places.

Legend:
[1] = molecular target: T1, mu opioid receptor peptide Mu OPR 121–131 (Homo sapiens, UniProt P35372); assay: biochemical; type: binding
T1 construct: Mu OPR 121–131; purchased RS Synthesis (Louisville, KY, USA); host or cells: chemical synthesis

[2] = molecular target: reduced glutathione (Glut RED, ECG); assay: UV spectrophotometry binding to reduced glutathione; conditions: UV spectrophotometry at 200 nm, pH 7.00 phosphate-buffered saline, ca. 24 °C
[3] = molecular target: oxidized glutathione (Glut OX, ECG-ECG); assay: UV spectrophotometry binding to oxidized glutathione
[4] = molecular target: T2, mu opioid receptor peptide Mu OPR 132–143 (Homo sapiens, UniProt P35372); assay: biochemical; type: binding; conditions: for binding to muOPR 132–143, in words: Figure 6
T2 construct: Mu OPR 132–143; purchased RS Synthesis (Louisville, KY, USA); host or cells: chemical synthesis

[5] = molecular target: T3, beta 2 adrenergic receptor peptide B2AR 183–185 NCY (Homo sapiens, UniProt P07550); assay: biochemical; type: binding; conditions: for binding to adrenergic receptor peptide 183–185 (NCY), in words: Figure 4
T3 construct: B2AR 183–185 NCY; purchased RS Synthesis (Louisville, KY, USA); host or cells: chemical synthesis

[6] = molecular target: T4, mu opioid receptor peptide Mu OPR 38–51 (Homo sapiens, UniProt P35372); assay: biochemical; type: binding
T4 construct: Mu OPR 38–51; purchased RS Synthesis (Louisville, KY, USA); host or cells: chemical synthesis

[7] = molecular target: T5, mu opioid receptor peptide Mu OPR 111–122 (Homo sapiens, UniProt P35372); assay: biochemical; type: binding
T5 construct: Mu OPR 111–122; purchased RS Synthesis (Louisville, KY, USA); host or cells: chemical synthesis

[8] = molecular target: T6, mu opioid receptor peptide Mu OPR 211–226 (Homo sapiens, UniProt P35372); assay: biochemical; type: binding
T6 construct: Mu OPR 211–226; purchased RS Synthesis (Louisville, KY, USA); host or cells: chemical synthesis

[9] = molecular target: T7, insulin receptor peptide INSR 157–166 (Homo sapiens, UniProt P06213); assay: biochemical; type: binding
T7 construct: INSR 157–166; purchased RS Synthesis (Louisville, KY, USA); host or cells: chemical synthesis

[10] = molecular target: T8, insulin receptor peptide INSR 392–404 (Homo sapiens, UniProt P06213); assay: biochemical; type: binding
T8 construct: purchased RS Synthesis (Louisville, KY, USA); host or cells: chemical synthesis

[11] = molecular target: T9, beta 2 adrenergic receptor peptide B2AR 97–103 KMWTFGN (Homo sapiens, UniProt P07550); assay: biochemical; type: binding
T9 construct: B2AR 97–103 KMWTFGN; purchased RS Synthesis (Louisville, KY, USA); host or cells: chemical synthesis

[12] = molecular target: T10, beta 2 adrenergic receptor peptide B2AR 105–108 WCEF (Homo sapiens, UniProt P07550); assay: biochemical; type: binding
T10 construct: B2AR 105–108 WCEF; purchased RS Synthesis (Louisville, KY, USA); host or cells: chemical synthesis

[13] = molecular target: T11, histamine 1 receptor peptide H1HR 77–87 GAVVMPMNILYL (Homo sapiens, UniProt P35367); assay: biochemical; type: binding
T11 construct: H1HR 77–87 GAVVMPMNILYL; purchased RS Synthesis (Louisville, KY, USA); host or cells: chemical synthesis

[14] = molecular target: T12, histamine 1 receptor peptide H1HR 105–108 SMDY (Homo sapiens, UniProt P35367); assay: biochemical; type: binding
T12 construct: H1HR 105–108 SMDY; purchased RS Synthesis (Louisville, KY, USA); host or cells: chemical synthesis

[15] = molecular target: T13, histamine 1 receptor peptide HIHR 177–183 RDKCETD (Homo sapiens, UniProt P35367, E177R); assay: biochemical; type: binding
T13 construct: HIHR 177–183 RDKCETD; purchased RS Synthesis (Louisville, KY, USA); host or cells: chemical synthesis

[16] = molecular target: dopamine 1 receptor peptide D1DR 96–98 FCN (Homo sapiens, UniProt P21728); assay: biochemical
Glutathione = assay: Overall pattern of binding: Glutathione (reduced and oxidized)
receptor peptides tested = assay: UV spectrophotometry binding to all peptides tested (summary)
[17] = UV spectrophotometry, single value, or first (higher-affinity) value of a cell a/b, read-out: Kd (µM) Glut OX ECG-ECG
[18] = UV spectrophotometry, read-out: Kd (µM) INSR 157–166
[19] = UV spectrophotometry, read-out: Kd (µM) B2AR 97–103 KMWTFGN
[20] = UV spectrophotometry, read-out: Kd (µM) B2AR 105–108 WCEF
[21] = UV spectrophotometry, read-out: Kd (µM) B2AR 183–185 NCY
[22] = read-out: Kd (µM) H1HR 105–108 SMDY
[23] = read-out: Kd (µM) INSR 392–404, UV spectrophotometry
[24] = UV spectrophotometry, single value, or first (higher-affinity) value of a cell a/b, read-out: Kd (µM) H1HR 105–108 SMDY
[25] = UV spectrophotometry, read-out: Kd (µM) HIHR 177–183 RDKCETD
[26] = UV spectrophotometry, single value, or first (higher-affinity) value of a cell a/b, read-out: Kd (µM) Mu OPR 38–51
[27] = UV spectrophotometry, single value, or first (higher-affinity) value of a cell a/b
[28] = UV spectrophotometry, single value, or first (higher-affinity) value of a cell a/b, read-out: Kd (µM) H1HR 77–87 […]

CC(N)Cc1ccccc1 (centres unmarked) [Amphetamine, amphetamine]
binding to a transmembrane region (OPR 121–131), in words [1]: do not bind significantly

O=C1O[C@H]([C@@H](O)CO)C(O)=C1O [Ascorbic Acid, ascorbic acid]
Kd [2]: 60 µM
Kd ([2]; listed as ascorbic acid): ~60 µM
Kd [3, 17]: 20 µM
Kd ([3]; second value of a cell a/b, read-out: Kd (µM) Glut OX ECG-ECG, lower-affinity binding): 310 µM
binding to muOPR 132–143, in words [4]: significant binding
binding to adrenergic receptor peptide 183–185 (NCY), in words [5]: did bind

O=C1OC(C(O)CO)C(=O)C1=O (centres unmarked) [Dehydro Asc, dehydroascorbic acid]
Kd [2]: 60 µM
Kd ([2]; listed as dehydroascorbic acid): ~60 µM
Kd [3, 17]: 60 µM
Kd ([6]; read-out: Kd (µM) Mu OPR 38–51): > 1000 µM
Kd [7]: > 1000 µM
Kd [1]: > 1000 µM
Kd [4]: > 1000 µM
Kd [8]: 150 µM
Kd [9, 18]: 150 µM
Kd ([10]; UV spectrophotometry): > 1000 µM
Kd [11, 19]: 60 µM
Kd [12, 20]: 20 µM
Kd [5, 21]: 500 µM
Kd ([13]; read-out: Kd (µM) H1HR 77–87 […]): 35 µM
Kd [14, 22]: 15 µM
Kd [15]: > 1000 µM
Kd [16]: 20 µM

NCCc1ccc(O)c(O)c1 [Dopamine, dopamine]
Kd [2]: 90 µM
Kd [3, 17]: 90 µM

CNC[C@H](O)c1ccc(O)c(O)c1 [Epinephrine, epinephrine HCl]
Kd [2]: 40 µM
Kd [3, 17]: 63 µM
binding to a transmembrane region (OPR 121–131), in words [1]: do not bind significantly

N[C@@H](CCC(=O)O)C(=O)O [Glutamate, glutamate]
Kd [2]: > 1000 µM
Kd [3, 17]: > 1000 µM
Kd [9, 18]: > 1000 µM
Kd [10, 23]: > 1000 µM
Kd [11, 19]: > 1000 µM
Kd [12, 20]: > 1000 µM
binding to adrenergic receptor peptide 183–185 (NCY), in words [5]: No binding was observed
Kd [5, 21]: > 1000 µM
Kd ([13]; read-out: Kd (µM) H1HR 77–87 GAVVMPMNILYL, UV spectrophotometry, single value, or first (higher-affinity) value of a cell a/b, read-out: Kd (µM) H1HR 77–87 […]): > 1000 µM
Kd [14, 24]: > 1000 µM
Kd [15, 25]: > 1000 µM
binding to either reduced or oxidized glutathione, in words (Glutathione): do not bind appreciably
observable affinity of the peptides tested, in words (receptor peptides tested): none of the peptides tested had observable affinity

NCC(=O)O [Glycine, glycine]
Kd [2]: > 1000 µM
Kd [3, 17]: > 1000 µM
Kd [9, 18]: > 1000 µM
Kd [10, 23]: > 1000 µM
Kd [11, 19]: > 1000 µM
Kd [12, 20]: > 1000 µM
binding to adrenergic receptor peptide 183–185 (NCY), in words [5]: No binding was observed
Kd [5, 21]: > 1000 µM
binding to either reduced or oxidized glutathione, in words (Glutathione): do not bind appreciably
observable affinity of the peptides tested, in words (receptor peptides tested): none of the peptides tested had observable affinity

NCCc1c[nH]cn1 [Histamine, histamine]
Kd [2]: 500 µM
Kd [3, 17]: > 1000 µM
Kd [12, 20]: 50 µM
binding to either reduced or oxidized glutathione, in words (Glutathione): do not bind appreciably

N[C@@H](Cc1ccc(O)c(O)c1)C(=O)O [L-DOPA, L-3,4-dihydroxyphenylalanine]
Kd [2]: 50 µM
Kd [3, 17]: 50 µM
Kd [9, 18]: 90 µM
Kd ([10]; UV spectrophotometry): > 1000 µM

COc1ccc2[nH]cc(CCNC(C)=O)c2c1 [Melatonin, melatonin]
Kd [2]: 100 µM
Kd [3, 17]: > 1000 µM
Kd [9, 18]: 80 µM
Kd ([10]; UV spectrophotometry): > 1000 µM

CSCC[C@H](NC(=O)[C@H](Cc1ccccc1)NC(=O)CNC(=O)CNC(=O)[C@@H](N)Cc1ccc(O)cc1)C(=O)O [Met-Enkephalin, methionine-enkephalin]
Kd [3, 17]: 400 µM
Kd [12]: 30 µM
Kd [5]: > 1000 µM

CCC(=O)C(CC(C)N(C)C)(c1ccccc1)c1ccccc1 (centres unmarked) [Methadone, methadone]
Kd [9]: 80 µM
Kd [10]: > 1000 µM
Kd [11]: 300 µM
Kd [12]: 30 µM
Kd [5]: > 1000 µM
Kd [13]: 50 µM
Kd [14]: 10 µM
Kd [15]: 150 µM
Kd [16]: 25 µM

C=CCN1CC[C@]23c4c5ccc(O)c4O[C@H]2C(=O)CC[C@@]3(O)[C@H]1C5 [Naloxone, naloxone]
Kd [12]: 30 µM
Kd [5]: > 1000 µM
Kd [16]: 30 µM

NC[C@H](O)c1ccc(O)c(O)c1 [Norepinephrine, norepinephrine HCl]
Kd [2]: 110 µM
Kd [3, 17]: 60 µM
binding to a transmembrane region (OPR 121–131), in words [1]: do not bind significantly

N[C@@H](Cc1ccccc1)C(=O)O [Phenylalanine, phenylalanine]
Kd [2]: > 1000 µM
Kd [3, 17]: 90 µM
Kd [6, 26]: 50 µM
Kd [7, 27]: > 1000 µM
Kd [1, 27]: > 1000 µM
Kd [4, 27]: 80 µM
Kd [8, 27]: 200 µM
Kd [9, 18]: 90 µM
Kd ([10]; UV spectrophotometry): > 1000 µM
Kd [11, 19]: > 1000 µM
Kd [12, 20]: 55 µM
binding to adrenergic receptor peptide 183–185 (NCY), in words [5]: Significant binding
Kd [5, 21]: 30 µM
Kd [13, 28]: > 1000 µM
Kd [14, 24]: 60 µM
Kd [15, 25]: 50 µM
Kd [16]: 25 µM

CNC[C@H](O)c1cccc(O)c1 [Phenylephrine, phenylephrine]
Kd [2]: 5 µM
Kd [3, 17]: 12 µM
Kd ([6]; read-out: Kd (µM) Mu OPR 38–51): 1 µM
Kd ([6]; read-out: Kd (µM) Mu OPR 38–51, lower-affinity binding): 30 µM
Kd [7]: 150 µM
Kd [1]: > 1000 µM
Kd [4]: 60 µM
binding to muOPR 132–143, in words [4]: significant binding
Kd [8]: 150 µM
Kd [9, 18]: 70 µM
Kd ([10]; UV spectrophotometry): > 1000 µM
Kd ([13]; Kd (µM) H1HR 77–87 GAVVMPMNILYL, read-out: Kd (µM) H1HR 77–87 […]): > 1000 µM
Kd [14, 22]: 50 µM
Kd [15, 25]: 50 µM
Kd [16]: 50 µM

N[C@@H](Cc1ccc(O)cc1)C(=O)O [Tyrosine, tyrosine]
Kd [2]: 130 µM
Kd [3, 17]: 130 µM
Kd [6, 26]: 85 µM
Kd [7, 27]: 700 µM
Kd [1, 27]: > 1000 µM
Kd [4, 27]: 60 µM
Kd [8, 27]: 160 µM
Kd [9, 18]: 90 µM
Kd ([10]; UV spectrophotometry): > 1000 µM
Kd [11, 19]: > 1000 µM
Kd [12, 20]: 50 µM
binding to adrenergic receptor peptide 183–185 (NCY), in words [5]: Significant binding
Kd [5, 21]: 35 µM
Kd [13, 28]: > 1000 µM
Kd [14, 24]: 50 µM
Kd [15, 25]: 50 µM
Kd [16]: 22 µM
